Measured values as given in US20240368563A1, “IN VITRO METHOD OF INVASIVE AND DUCTAL CELL GROWTH” (Helmholtz Zentrum München - Deutsches Forschungszentrum Für …, priority 2021, published 2024).

Key:
Assay type in all cases: cell-based
[1] = system: human mammary luminal progenitor (LP) cells; test: Branched structure formation of single LP cells in collagen type I gels (carmine staining, quantification of structure type, size, complexity)
Description: Healthy mammary gland tissue was provided by the Nymphenburg Clinic for Plastic and Aesthetic Surgery and processed in accordance with the regulations of the ethics committee of the Ludwig-Maximilian University, Munich, Germany (proposal 19-989) as described previously^35,63. In brief, reduction mammoplasty tissue was minced with scalpels into 2-3 mm^3 pieces. Next, tissue was digested with 300 U/mL collagenase I and 100 U/mL hyaluronidase and 1 μg/mL insulin for approximately 16 hrs. Finally, fragments were either cryopreserved immediately or a single cell suspension was made using trypsin-EDTA and dispase. If cells were cryopreserved as fragments, they were turned into a single cell suspension upon thawing using trypsin-EDTA and dispase. Prior to experiments, single cell suspensions were filtered through a 40 μm cell strainer. Age and parity of donors used in this study are catalogued in Table 1 given directly below.
3D collagen type I gels were prepared as described previously^35,63 with modifications. Single cell suspensions were mixed with BLOM foundation, rat tail collagen type I (Corning) and neutralizing solution. The final collagen concentration was 1.3 mg/ml. If the pH of the solution was <7.4, the pH was adjusted by addition of NaOH (1 M) up to a volume of 1 μl per 100 μl polymerization solution. After polymerization for 1 hr, 2× concentrated full medium was added onto the gels in a 1:1 volume ratio to the gel. Gels were encircled with a pipette tip for detachment. For cells that had not been in culture previously, the first medium exchange (from now on with 1× concentrated medium) was done after 5 d and then every 2-3 d. In case of cells that had been in 2D culture before, the first medium exchange was done between 3 d and 5 d. For all experiments except ELDA, per 1 ml of gel, between 250 and 2000 LP cells were seeded. In case of B+ and LM cells, between 2000 and 7500 cells were seeded per 1 ml of gel.
Images of carmine stained structures were evaluated with ImageJ. The size of an organoid was determined with the ImageJ area tool. Here, all tips of the structure were virtually connected with the ImageJ area tool and size was defined as the area covered by the organoid. For assessment of complexity, the longest branch was identified within each structure. The hierarchy of all other branches relative to this longest branch was classified (see FIG. 6B).
Carmine staining solution was prepared with a concentration of 0.5 g/l carmine and 1.15 g/l aluminium potassium sulfate in distilled water. For staining of 3D structures, gels were fixed with 4% paraformaldehyde for 15 min and incubated with carmine staining solution overnight. Images were acquired on a Leica DM IL LED microscope using a HiPlan 10×/0.22 PH1 objective. Three PBS washing steps were performed in between all steps described above.

[2] = system: human mammary luminal progenitor (LP) cells; test: Immunofluorescence of polarization markers in LP-derived organoids; conditions: BLOM-medium without Y-27632
Description: 2D cells for immunofluorescence were cultured in 96-wells with optically clear bottom (PerkinElmer, 6005550). Immunofluorescence was performed as described previously^35,63. In brief, 2D cells or 3D cells (in collagen type I gels) were fixed with 4% paraformaldehyde for 15 min. Cells were permeabilized with 0.2% Triton X-100 for 2 min (2D) and 10 min (3D) respectively. Blocking was performed with 10% donkey serum in 0.1% BSA for 1 hr (2D) and overnight at 4° C. (3D) respectively. Primary antibodies in 0.1% BSA were incubated for 1 hr (2D) and overnight at 4° C. (3D) respectively. Next, DAPI (167 ng/ml) was added for 2 min (2D) and 10 min (3D), respectively. Finally, Aqua-Poy/Mount mounting medium (Polysciences, 18606) was added to preserve staining. Three PBS washing steps were performed in between all steps described above. Images of cells grown in 2D were acquired on an Axio Imager. A M2m imaging microscope was used with a 40× objective. Images of cells grown in 3D were acquired on FLUOVIEW FV1000 inverted confocal laser scanning microscope equipped with four laser lines (405, 488, 543, and 633 nm) using UPLSAPO 60×, 40× and 20× objective lenses. Images were processed with Gimp 2.8.22 and ImageJ 1.52i.

[3] = system: human mammary luminal progenitor (LP) cells; test: Live-cell imaging of LP-derived organoids during elongation phase (cell movement, bead displacement, duct elongation)
Description: Live cell imaging was performed using a Leica SP8 lightning confocal microscope with an on-stage incubation system (Ibidi) regulating CO2, O2, humidity and temperature. Organoids were imaged during elongation phase between day 7 and 9 with a time separation of 10 min between each acquired image. For visualization, nuclei were labelled with 10 μM sirDNA (Spirochrome AG) 3 hours prior to the measurements. Accordingly, organoids were excited at 633 nm and the fluorescent signal was collected around 674 nm using a HCX PL APO 10×/0.40 CS dry objective. Bead displacements/deformation fields were visualized using ImageJ 1.48v. First, the fluorescence signal of the fluorescent nuclei at the first time step was summed up along the z-axis to visualize the shape of the organoid. Second the fluorescence channel of the beads was summed along the z-axis and subsequently summed up over all time steps. At last, both calculated pictures were merged into one image. Bead tracking was calculated using Matlab R2020b. First, the fluorescence channel of the beads was masked by an intensity threshold to reduce the background. Second, bead positions are defined by taking the center of an interpolated intensity grid. Third, individual bead tracks were calculated by matching bead coordinates in three consecutive images. Thereby, beads touching the boundaries or beads to close to each other were excluded to guarantee a correct tracking.
Analysis for structure prevalence, type, size and complexity was performed with GraphPad Prism 8. Nuclei velocity within the organoid was calculated via optical flow using the in Matlab implemented Farneback algorithm. By defining the branch axis, the velocities were separated in a parallel and orthogonal component. The directionality of nuclei migration was defined by calculating the ratio of parallel and orthogonal component. Consequently, at directionality equal to one parallel and orthogonal component are at the same order of magnitude. At higher or lower values, either parallel or orthogonal velocity component dominates. In order to visualize the migration patterns of individual cells, cells were manually tracked. Therefore, each nucleus was tracked three times and the resulting average path was calculated.
Collagen degradation via MMPs was inhibited by using 10 μM Marimastat (Merck, 444289), which was added to the medium of elongating organoids prior to imaging. E-cadherin blocking was performed by addition of an E-cadherin blocking-antibody HECD1 in a dilution of 1:25 after 5 d of organoid culture.

[4] = 10 μM Marimastat during branch elongation phase

C[C@@H](N)[C@H]1CC[C@H](C(=O)Nc2ccncc2)CC1 [Y-27632]
decrease in branched structure formation upon removal of Y-27632 ([1]; BLOM-medium without Y-27632 (DMSO ctrl) vs with Y-27632 (5 μM), donors M35, M44, M45): 79%
change in size of branched structures upon removal of Y-27632 ([1]; BLOM-medium without Y-27632 (DMSO ctrl) vs with Y-27632, size = area covered by organoid): −66%
organoids with tertiary or even more complex branches ([1]; control organoids in BLOM-medium with Y-27632 (only 6% without Y-27632)): 65%
formation of elongated branched structures (in words) ([1]; medium deprived of Y-27632): prevented the formation of elongated branched structures almost completely
apical-basal polarization of organoids (laminin, F-actin, lumen) (in words) [2]: polarization was disturbed in the absence of ROCK inhibition
bead displacement / contractility (in words) ([3]; in the presence of ROCK inhibitor, collagen gels spiked with fluorescent beads): not completely abolished, but limited to the front of elongating branches
directionality of cell migration within organoids (in words) ([3]; under ROCK inhibition (with Y-27632), nuclear labelling): primarily directed outwards in parallel to the axis of the extending branch

CNC(=O)[C@@H](NC(=O)[C@H](CC(C)C)[C@H](O)C(=O)NO)C(C)(C)C [Marimastat]
duct elongation / invasion of branch tips (in words) [3, 4]: stopped the branch tips from further invading the matrix
general cytotoxic effect (in words) [3, 4]: excluding a general cytotoxic effect

Cc1ccc2c(c1)C(=O)[C@]1(O)CCN(c3ccc(N)cc3)C1=N2 [PAB, para-amino blebbistatin]
branched structure phenotype when Y-27632 is replaced by PAB (in words) ([1]; BLOM-medium without Y-27632, PAB added, donors M16, M28, M44): able to induce a phenotype similar to the one created by Y-27632
